“Also recorded” adds a separate entry of the source. Values belong to the compound of their own block, whether it stands above or below them.
Columns and labels:
[1] = system: primary mouse hepatocytes; experiment: MIEL-Rejuvenation in primary old hepatocytes; assay type: cell-based, mice; details: for outcome in high throughput screening using primary mouse hepatocytes (miBioAge): figure legends FIG. 63-65; for shift of epigenetic signature of old cells towards that of young cells: old hepatocytes
Description: To meet this challenge, techniques described herein were employed to analyze the effects of various drugs on the analysis of epigenome topography at the single cell level. Because of large numbers of cells required for drug screening, mice were used as a source of (C57BLACK/6) of liver hepatocytes (˜98% pure in the preparations) for probing whether epigenetic signature of aging is retained after short-term cultures of hepatocytes. […] The ability of hepatocytes to maintain age-related epigenetic or multiparametric signatures in cell culture conditions provides the foundation for high throughput screening.
These high content screenings using MIEL pipeline were conducted to adapt these assay conditions. Briefly, on day 0, 10,000 primary mouse hepatocytes per well were seeded in 384 well plates. Hepatocytes were isolated via a 2-step perfusion method yielding ˜98% pure population of primary hepatocytes. At 24 hrs after seeding, compounds were added in DMSO. Primary mouse hepatocytes were determined to tolerate DMSO concentrations of at least 0.1% (v/v) without adverse effects on cell growth or viability over 5 days (compared to no DMSO control). Using the Echo acoustic compound dispensing system and 10 mM stock concentration library plates, each of the drugs at concentrations up to 10 μM was sufficiently delivered. At 4 days after seeding, cells were fixed and immunolabeled with antibody to H3K9me3, H3K27me3, and H4K20me3 (initially in separate wells) to determine the efficiency of each individual mark and potential for synergy.

GBM2 cells [2] = experiment: Immunofluorescence of core TPC transcription factors and Ki67 in drug-treated cells; assay type: cell-based, human; details: for Sox2 expression: GBM2, 3 days treatment, Digitoxigenin 0.3 μM; for expression of the core transcription factors: GBM2, compared with serum and Bmp4; for Sall2 and Brn2 expression: GBM2, immunofluorescence
Description: Cell staining: Cells were rinsed with PBS and fixed in 4% paraformaldehyde in PBS for 10 min at room temperature. After blocking with PBSAT (2% BSA and 0.5% Triton X-100 in PBS) for 1 h at room temperature, the cells were incubated overnight at 4° C. with primary antibodies diluted in PBSAT. The primary antibodies are listed in Table 2, and the appropriate fluorochrome-conjugated secondary antibodies were used at 1:500 dilution. Nuclear co-staining was performed by incubating cells with Hoechst-33342 nuclear dye.
Microscopy and image analysis: Unless stated otherwise, for MIEL analysis cells were imaged on an Opera QEHS high-content screening system (PerkinElmer) using ×40 water immersion objectives. Images collected on the Opera were analyzed using Acapella 2.6 (PerkinElmer). At least 40 fields per well were acquired and at least 2 wells per population were used. Features of nuclear morphology, fluorescence intensity inter-channel co-localization, and texture features (Image moments, Haralick, Threshold Adjacency Statistics) were calculated using custom algorithms (scripts available from www.andrewslab.ca). A full list of the features used is available from the authors. Values for each cell were generated and exported to MATLAB for further analysis. For Sall2, Olig2, Brn2, Sox2, Oct4 and GFAP immunostaining, images were captured on an IC200-KIC (Vala Sciences) using a ×20 objective. Between 3 and 8 fields per well were acquired and analyzed using Acapella 2.6 (PerkinElmer). For all nuclear markers, average intensities in nucleus or fold change in average intensity compared to untreated cells are shown. Unless stated otherwise, at least 3 wells and a minimum of 300 cells for each condition were compared using unpaired two-tailed t-test was.
Microscopy and image analysis: For MIEL analysis, cells were imaged on either an Opera QEHS high-content screening system (PerkinElmer) using ×40 water immersion objectives or an IC200-KIC (Vala Sciences) using a ×20 objective. Images collected were analyzed using Acapella 2.6 (PerkinElmer). At least 40 fields/well for Opera and 5 fields/well for IC200 were acquired and at least 2 wells per population were used. Features of nuclear morphology, fluorescence intensity inter-channel co-localization, and texture features (Image moments, Haralick, Threshold Adjacency Statistics) were calculated using custom algorithms. A full list of the features used is available from the authors. Values for each cell were generated and exported to Microsoft Excel or MATLAB for further analysis. For Sall2, Olig2, Brn2, Sox2, Oct4, and GFAP immunostaining, images were captured on an IC200-KIC (Vala Sciences) using a ×20 objective. Between 3 and 8 fields per well were acquired and analyzed using Acapella 2.6 (PerkinElmer). For all nuclear markers, average intensities in nucleus or fold change compared to untreated cells are shown. Unless stated otherwise, at least 3 wells and a minimum of 300 cells for each condition were compared using the unpaired two-tailed t-test.

GBM2 cells [3] = experiment: RNAseq and transcriptomic analysis; assay type: cell-based, human; details: for gene expression changes (GO terms) compared with those induced by serum or BMP4 / ranking by average Euclidean distance from serum- or Bmp4-treated cells (MIEL- and gene expression-based): GBM2, 3 days; for Euclidean distance (FPKM, all expressed genes) of treated cells to serum or Bmp4 treated cells: GBM2 TPCs; for ranking by average Euclidean distance from serum- or Bmp4-treated cells (MIEL- and gene expression-based): 8 candidate compounds
Description: RNAseq and transcriptomic analysis: Total RNA was isolated from GBM2 cells using the RNeasy Kit (Qiagen), 0.5 ug total RNA was used for isolation of mRNAs and library preparation. Library preparation and sequencing was conducted by the SBP genomics core (Sanford-Burnham NCI Cancer Center Support Grant P30 CA030199). PolyA RNA was isolated using the NEBNext® Poly(A) mRNA Magnetic Isolation Module and barcoded libraries were made using the NEBNext® Ultra II™ Directional RNA Library Prep Kit for Illumina® (NEB, Ipswich MA). Libraries were pooled and single end sequenced (1X75) on the Illumina NextSeq 500 using the High output V2 kit (Illumina). Read data was processed in BaseSpace. Reads were aligned to Homo sapiens genome (hg19) using STAR aligner with default settings. Differential transcript expression was determined using the Cufflinks Cuffdiff package. Go term enrichment analysis was conducted using PANTHER v11 using all genes identified as differentially expressed following either serum or Bmp4 treatment. For heat maps showing fold change in expression the FPKM values in each population were divided by the average FPKM values of untreated GBM2. To highlight differences in expression levels between serum and Bmp4 treated GBM2 cells the FPKM values in each sample were z-scored. Zscore=(FPKMObservation−FPKMAverage)/FPKMSD (FPKMObservation−FPKM value obtain through sequencing; FPKMAverage−average of all FPKM values in all samples for a certain gene; FPKMSD−standard deviation of FPKM values for a certain gene). Heat maps were generated using Microsoft Excel conditional formatting function.
Correlation of transcriptomic and image-based profiles: Euclidean distance between untreated, serum or Bmp4 treated GBM2 cells (triplicates for each) was calculated using either transcriptomic data (FPKM) or texture features. Pearson's correlation coefficient (R) was transformed to a t-value using the formula (t=R×SQRT(N−2)/SQRT(1−R2) where N is the number of samples, and R is Pearson correlation coefficient, and the p-value was calculated using Excel tdist(t) function. For compound prioritization, the Euclidean distance between compound treated and serum or Bmp4 treated GBM2 cells was calculated based on either transcriptomic data (FPKM) or image features. The average distance to both serum and Bmp4 treatments was normalized to the average distance of untreated cells to serum and Bmp4.
RNAseq and transcriptomic analysis: Total RNA was isolated from GBM2 cells using the RNeasy Kit (Qiagen), 0.25 μg total RNA was used to isolate mRNAs and for library preparation. Library preparation and sequencing were conducted by the SBP genomics core (Sanford-Burnham NCI Cancer Center Support Grant P30 CA030199). PolyA RNA was isolated using the NEBNext® Poly(A) mRNA Magnetic Isolation Module, and barcoded libraries were made using the NEBNext® Ultra II™ Directional RNA Library Prep Kit for Illumina® (NEB, Ipswich MA). Libraries were pooled and single-end sequenced (1×75) on the Illumina NextSeq 500 using the High-Output V2 kit (Illumina). Read data, processed in BaseSpace, were aligned to Homo sapiens genome (hg19) using STAR aligner with default settings. Differential transcript expression was determined using the Cufflinks Cuffdiff package. For heat maps showing fold change in expression, FPKM values in each HDACi-treated population were divided by the average FPKM values of DMSO-treated GBM2 and values shown as log 2 of the ratio. Go enrichment analysis was conducted using PANTHER v11 using all genes identified as differentially expressed following either serum or Bmp4 treatment. To highlight differences in expression levels between serum- and Bmp4-treated GBM2 cells, FPKM values in each sample were z-scored. Zscore=(FPKMObservation−FPKMAverage)/FPKMSD (FPKMObservation−FPKM value obtain through sequencing; FPKMAverage−average of all FPKM values in all samples for a certain gene; FPKMSD−standard deviation of FPKM values for a certain gene). […]

TPCs = experiment: Growth rate of treated glioblastoma cells; details: GBM2, 3 days, compared with serum/Bmp4 treatment

Structure (SMILES): C[C@]12CC[C@H](O)C[C@H]1CC[C@@H]1[C@@H]2CC[C@]2(C)[C@@H](C3=CC(=O)OC3)CC[C@]12O [Digitoxigenin]
Sox2 expression (GBM2 cells [2]): reduce
expression of the core transcription factors (GBM2 cells [2]): downregulate
Sall2 and Brn2 expression (GBM2 cells [2]): significant reduction
gene expression changes (GO terms) compared with those induced by serum or BMP4 (GBM2 cells [3]): markedly different
Euclidean distance (FPKM, all expressed genes) of treated cells to serum or Bmp4 treated cells (GBM2 cells [3]): Neither Digitoxigenin nor Digoxin reduced the distance

Structure (SMILES): CN(C)C(=N)N=C(N)N [Metformin]
outcome in high throughput screening using primary mouse hepatocytes (miBioAge) [1]: positive controls

Structure (SMILES): C[C@H]1O[C@@H](O[C@H]2[C@@H](O)C[C@H](O[C@H]3[C@@H](O)C[C@H](O[C@H]4CC[C@@]5(C)[C@H](CC[C@@H]6[C@@H]5C[C@@H](O)[C@]5(C)[C@@H](C7=CC(=O)OC7)CC[C@]65O)C4)O[C@@H]3C)O[C@@H]2C)C[C@H](O)[C@@H]1O [Digoxin]
Sox2 expression (GBM2 cells [2]): reduced
expression of the core transcription factors (GBM2 cells [2]): downregulate
Sall2 and Brn2 expression (GBM2 cells [2]): significant reduction
gene expression changes (GO terms) compared with those induced by serum or BMP4 (GBM2 cells [3]): markedly different
ranking by average Euclidean distance from serum- or Bmp4-treated cells (MIEL- and gene expression-based) (GBM2 cells [3]): lowest-ranking candidate
gene expression changes (GO terms) compared with those induced by serum or BMP4 (GBM2 cells [3]; listed as digoxin): rather different
Euclidean distance (FPKM, all expressed genes) of treated cells to serum or Bmp4 treated cells (GBM2 cells [3]): Neither Digitoxigenin nor Digoxin reduced the distance
growth rate of drug-treated cells (TPCs): stronger reduction; also recorded: cytostatic
growth rate of drug-treated cells (TPCs; listed as digoxin): cytostatic

Structure (SMILES): COc1cc([C@@H]2c3cc4c(cc3[C@@H](O[C@@H]3O[C@@H]5CO[C@@H](C)O[C@H]5[C@H](O)[C@H]3O)[C@H]3COC(=O)[C@H]23)OCO4)cc(OC)c1O [etoposide]
ranking by average Euclidean distance from serum- or Bmp4-treated cells (MIEL- and gene expression-based) (GBM2 cells [3]): top candidate

Structure (SMILES): NC(=O)c1ccc[n+]([C@@H]2O[C@H](COP(=O)([O-])O)[C@@H](O)[C@H]2O)c1 [Nicotiamide mononucleotide, Nicotinamide mononucleotide]
outcome in high throughput screening using primary mouse hepatocytes (miBioAge) [1]: inactive molecules

Structure (SMILES): CC(=O)Oc1ccccc1C(=O)O [aspirin]
shift of epigenetic signature of old cells towards that of young cells [1]: Statistically significant dose-dependent shifts

Structure (SMILES): C[C@]12CC[C@@H]3c4ccc(O)cc4CC[C@H]3[C@@H]1CC[C@@H]2O [17 beta-estradiol]
outcome in high throughput screening using primary mouse hepatocytes (miBioAge) [1]: positive controls

More lines, main results first:

outcome in high throughput screening using primary mouse hepatocytes (miBioAge) [1]: hits to be tested in animal models
Structure (SMILES): CC(C)n1nc(-c2ccc3oc(N)nc3c2)c2c(N)ncnc21 [INK128]

outcome in high throughput screening using primary mouse hepatocytes (miBioAge) [1]: hits to be tested in animal models
Structure (SMILES): COc1ncc(-c2ccc3nccc(-c4ccnnc4)c3c2)cc1NS(=O)(=O)c1ccc(F)cc1F [GSK2126458]

outcome in high throughput screening using primary mouse hepatocytes (miBioAge) [1]: inactive molecules
Structure (SMILES): NC(=O)c1ccc[n+]([C@@H]2O[C@H](CO)[C@@H](O)[C@H]2O)c1 [nicotinamide riboside]

outcome in high throughput screening using primary mouse hepatocytes (miBioAge) [1]: hits to be tested in animal models
Structure (SMILES): Cn1c(=O)n(-c2ccc(C(C)(C)C#N)cc2)c2c3cc(-c4cnc5ccccc5c4)ccc3ncc21 [NVP-BEZ235]

outcome in high throughput screening using primary mouse hepatocytes (miBioAge) [1]: positive controls
Structure (SMILES): CC(Cc1ccc(O)c(O)c1)C(C)Cc1ccc(O)c(O)c1 (centres unmarked) [NDGA]
shift of epigenetic signature of old cells towards that of young cells [1]: Statistically significant dose-dependent shifts

outcome in high throughput screening using primary mouse hepatocytes (miBioAge) [1]: inactive molecules
Structure (SMILES): O=C(O)C(Cc1c[nH]c2ccccc12)N1C(=O)c2ccccc2C1=O (centres unmarked) [RG108]

Source: patent publication US20230392180A1, “MICROSCOPIC IMAGING AND ANALYSES OF EPIGENETIC LANDSCAPE” (Sanford Burnham Prebys Medical Discovery Institute, priority 2020, published 2023)
